Source: patent publication US6538106B1, “Compositions and methods for treating infections using analogues of indolicidin” (priority 1996, dated 2003)
Where two headings read alike, the source gives them in different places.

What was measured:
S. marcescens [1] = test: Synergy assay (agarose dilution, FIC); format: cell-based; details: S. marcescens SBSM1
Protocol: (§1) Briefly, one assay for in vitro anti-bacterial activity, the agarose dilution assay, is set up with an array of plates that each contain a combination of peptide analogue and antibiotic in various concentrations. The plates are inoculated with bacterial isolates, incubated, and the MICs of the components recorded. […] Antibiotics used in testing include, but are not limited to, penicillins, cephalosporins, carbacephems, cephamycins, carbapenems, monobactams, aminoglycosides, glycopeptides, quinolones, tetracyclines, macrolides, and fluoroquinolones (see Table 1 below).
(§2) Synergy is calculated according to the formula below. An FIC of ≦0.5 is evidence of synergy, although combinations with higher values may be therapeutically useful. [formula]
(§3) Treatment with a combination of peptide analogues and conventional antibiotics can have a synergistic effect. Synergy is assayed using the agarose dilution technique, where an array of plates, each containing a combination of peptide and antibiotic in a unique concentration mix, is inoculated with the bacterial isolates. Synergy is investigated for peptide analogues in combination with a number of conventional antibiotics including, but not limited to, penicillins, cephalosporins, carbapenems, monobactams, aminoglycosides, macrolides, fluoroquinolones.
(§4) Synergy is expressed as a Fractional Inhibitory Concentration (FIC), which is calculated according to the equation below. An FIC of less than or equal to 0.5 is evidence of synergy, although combinations with higher values may be therapeutically useful. [formula]

P. aeruginosa [2] = test: Synergy assay (agarose dilution, FIC); format: cell-based; details: P. aeruginosa PA3
Protocol: as §1, §2, §3, §4

E. coli [3] = test: Synergy assay (agarose dilution, FIC); format: cell-based; details: E. coli ECO1
Protocol: as §1, §2, §3, §4

E. faecalis [4] = test: Synergy assay (agarose dilution, FIC); format: cell-based; details: E. faecalis EFS8
Protocol: as §1, §2, §3, §4

S. aureus [5] = test: Synergy assay (agarose dilution, FIC); format: cell-based; details: for Mupirocin Comb. MIC: MIC of Mupirocin in combination with the peptide; for Peptide Comb. MIC: MIC of peptide in combination with Mupirocin; for FIC: peptide + Mupirocin
Protocol: as §1, §2
Synergy is assayed using the agarose dilution technique, where an array of plates, each containing a combination of peptide and antibiotic in a unique concentration mix, is inoculated with the bacterial isolates. Synergy is investigated for peptide analogues in combination with a number of conventional antibiotics including, but not limited to, penicillins, cephalosporins, carbapenems, monobactams, aminoglycosides, macrolides, fluoroquinolones.
as §4

S. epidermidis = test: Broth dilution assay (MIC); format: cell-based; details: S. epidermidis SE005
Protocol: (§5) This assay also uses calcium and magnesium supplemented Mueller Hinton broth as the growth medium. Typically 100 μl of broth is dispensed into each well of a 96-well microtitre plate and 100 μl volumes of two-fold serial dilutions of the peptide analogue are made across the plate. One row of wells receives no peptide and is used as a growth control. Each well is inoculated with approximately 5×10^5 CFU of bacteria and the plate is incubated at 35-37° C. for 16-20 hours.
(§6) For example, MIC values were established for a series of peptide analogues against S. aureus strains.

E. cloacae [6] = test: Broth dilution assay (MIC); format: cell-based; details: E. cloacae ECL007
Protocol: as §5, §6

A. calcoaceticus [7] = test: Broth dilution assay (MIC); format: cell-based; details: A. calcoaceticus AC001
Protocol: as §5, §6

S. aureus [8] = test: Broth dilution assay (MIC); format: cell-based; details: S. aureus SA002
Protocol: as §5, §6

S. marcescens [9] = test: Broth dilution assay (MIC); format: cell-based; details: S. marcescens SMS003
Protocol: as §5, §6

P. aeruginosa [10] = test: Broth dilution assay (MIC); format: cell-based; details: P. aeruginosa PA004
Protocol: as §5, §6

E. coli [11] = test: Broth dilution assay (MIC); format: cell-based; details: E. coli ECO005
Protocol: as §5, §6

E. faecalis [12] = test: Broth dilution assay (MIC); format: cell-based; details: E. faecalis EFS004
Protocol: as §5, §6

S. maltophilia [13] = test: Broth dilution assay (MIC); format: cell-based; details: S. maltophilia SMA002
Protocol: as §5, §6

K. pneumoniae [14] = test: Broth dilution assay (MIC); format: cell-based; details: K. pneumoniae KP001
Protocol: as §5, §6

E.coli strain ML-35 = format: cell-based; details: for Growth time of cells at which maximum activity occurs: 50 μg/ml peptide
[15] = test system: MSSA (Smith, ATCC # 19640); test: MSSA infection, mouse survival; format: in vivo, mice; details: below 14.5 mg/kg ip, formulation D
P. aeruginosa [16] = test: MIC of APS-modified and parent peptides; format: cell-based; details: P. aeruginosa PA004
E. coli [17] = test: MIC of APS-modified and parent peptides; format: cell-based; details: E. coli ECO005
S. maltophilia [18] = test: MIC of APS-modified and parent peptides; format: cell-based; details: S. maltophilia SMA002
S. marcescens [19] = test: MIC of APS-modified and parent peptides; format: cell-based; details: S. marcescens SMS003
A. calcoaceticus [20] = test: MIC of APS-modified and parent peptides; format: cell-based; details: A. calcoaceticus AC002
S. aureus [21] = test: MIC of APS-modified and parent peptides; format: cell-based
Protocol: (§7) All biological assays that compare APS-modified peptides with unmodified peptides are performed on an equimolar ratio. The concentration of APS-modified peptides can be determined by spectrophotometric measurement, which is used to normalize concentrations for biological assays.
(§8) APS-modified peptides are at least as potent as the parent peptides in in vitro assays performed as described herein. MIC values against gram positive bacteria are presented for several APS-modified peptides and compared with the values obtained using the parent peptides (Table 22).

E. faecalis [22] = test: MIC of APS-modified and parent peptides; format: cell-based
Protocol: as §7, §8

E. cloacae [23] = test: MIC of APS-modified and parent peptides; format: cell-based; details: E. cloacae ECL007
K. pneumoniae [24] = test: MIC of APS-modified and parent peptides; format: cell-based; details: K. pneumoniae KP001
[25] = MIC of Mupirocin in combination with the peptide
[26] = MIC of peptide in combination with Mupirocin

Substance	MIC (S. epidermidis)	MIC (E. cloacae [6])	MIC (A. calcoaceticus [7])	MIC (S. aureus [8])	MIC (S. marcescens [9])	MIC (P. aeruginosa [10])	MIC (E. coli [11])	MIC (E. faecalis [12])	MIC (S. maltophilia [13])	MIC (K. pneumoniae [14])	Corrected MIC (E. coli [17])	Corrected MIC (S. maltophilia [18])	Corrected MIC (E. faecalis [22]; E. faecalis EFS004)	Corrected MIC (E. faecalis [22]; E. faecalis EFS008)	other results
I L K K F P F F P F R R K [MBI 11A1CN]	16 µg/mL	–	–	–	–	–	–	–	–	–	–	–	–	–	Mupirocin Comb. MIC (S. marcescens [1]; [25]): >100 µg/mL; Peptide Comb. MIC (S. marcescens [1]; [26]): >128 µg/mL; FIC (S. marcescens [1]; peptide + Mupirocin): 2; Mupirocin Comb. MIC (P. aeruginosa [2]; [25]): >100 µg/mL; Peptide Comb. MIC (P. aeruginosa [2]; [26]): >128 µg/mL; FIC (P. aeruginosa [2]; peptide + Mupirocin): 2; Mupirocin Comb. MIC (E. coli [3]; [25]): 10 µg/mL; Peptide Comb. MIC (E. coli [3]; [26]): 4 µg/mL; FIC (E. coli [3]; peptide + Mupirocin): 0.14; Mupirocin Comb. MIC (E. faecalis [4]; [25]): 100 µg/mL; Peptide Comb. MIC (E. faecalis [4]; [26]): >128 µg/mL; FIC (E. faecalis [4]; peptide + Mupirocin): 2; Mupirocin Comb. MIC (S. aureus [5]; S. aureus SBSA3): 100 µg/mL; Peptide Comb. MIC (S. aureus [5]; S. aureus SBSA3): >128 µg/mL; FIC (S. aureus [5]; S. aureus SBSA3): 2; Mupirocin Comb. MIC (S. aureus [5]; S. aureus SBSA5): 10 µg/mL; Peptide Comb. MIC (S. aureus [5]; S. aureus SBSA5): 32 µg/mL; FIC (S. aureus [5]; S. aureus SBSA5): 0.58
I L K K I P I I P I R R K [MBI 11A2CN]	256 µg/mL	>256 µg/mL	>256 µg/mL	>256 µg/mL	>256 µg/mL	>256 µg/mL	>256 µg/mL	>256 µg/mL	>256 µg/mL	>256 µg/mL	–	–	–	–	–
I L P W K W P W W P W R R [MBI 10CN]	8 µg/mL	256 µg/mL	64 µg/mL	16 µg/mL	>256 µg/mL	>256 µg/mL	64 µg/mL	64 µg/mL	64 µg/mL	64 µg/mL	–	–	–	–	ONPG hydrolysis diminished, cells pre-incubated with valinomycin vs no pre-incubation (E.coli strain ML-35; valinomycin pre-incubation): approximately 50%; survival at lower doses [15]: clear dose-dependent survival
I L R R W P W W P W R K [MBI 11B2CN]	4 µg/mL	>256 µg/mL	128 µg/mL	32 µg/mL	>256 µg/mL	256 µg/mL	64 µg/mL	64 µg/mL	32 µg/mL	>256 µg/mL	–	–	–	–	–
I L R R W P W W P W R R K [MBI 11B1CN]	4 µg/mL	>256 µg/mL	64 µg/mL	32 µg/mL	>256 µg/mL	64 µg/mL	64 µg/mL	64 µg/mL	32 µg/mL	>256 µg/mL	8 µg/mL	128 µg/mL	8 µg/mL	32 µg/mL	Corrected MIC (P. aeruginosa [16]): 128 µg/mL; Corrected MIC (S. marcescens [19]): >128 µg/mL; Corrected MIC (A. calcoaceticus [20]): 2 µg/mL; Corrected MIC (S. aureus [21]; S. aureus SA010): 1 µg/mL; Corrected MIC (S. aureus [21]; S. aureus SA014): 8 µg/mL; Corrected MIC (S. aureus [21]; S. aureus SA018): 16 µg/mL; Corrected MIC (S. aureus [21]; S. aureus SA025): 1 µg/mL; Corrected MIC (S. aureus [21]; S. aureus SA093): 1 µg/mL
I L R W P W W P W R R K [MBI 11B7CN]	4 µg/mL	>256 µg/mL	64 µg/mL	16 µg/mL	>256 µg/mL	256 µg/mL	64 µg/mL	64 µg/mL	32 µg/mL	256 µg/mL	8 µg/mL	32 µg/mL	8 µg/mL	32 µg/mL	Growth time of cells at which maximum activity occurs (E.coli strain ML-35; early mid-log): 140 min; Growth time of cells at which maximum activity occurs (E.coli strain ML-35; late mid-log): 230 min; Effect on membrane permeabilizing activity (E.coli strain ML-35; peptide pre-incubated in HEPES/sucrose buffer with 5 mM Mg2+): significant inhibition; Effect on membrane permeabilizing activity (E.coli strain ML-35; peptide pre-incubated in HEPES/sucrose buffer with 150 mM NaCl): significant inhibition; Corrected MIC (E. faecalis [22]; E. faecalis EFS001): 8 µg/mL
i L K K W P W W P W R R k [MBI 11E3CN]	–	–	–	–	–	–	–	–	–	–	8 µg/mL	64 µg/mL	2 µg/mL	16 µg/mL	Corrected MIC (P. aeruginosa [16]): 128 µg/mL; Corrected MIC (S. marcescens [19]): >128 µg/mL; Corrected MIC (A. calcoaceticus [20]): 2 µg/mL; Corrected MIC (E. cloacae [23]): >128 µg/mL; Corrected MIC (K. pneumoniae [24]): 8 µg/mL; Corrected MIC (S. aureus [21]; S. aureus SA010): 1 µg/mL; Corrected MIC (S. aureus [21]; S. aureus SA011): 4 µg/mL; Corrected MIC (S. aureus [21]; S. aureus SA014): 4 µg/mL; Corrected MIC (S. aureus [21]; S. aureus SA018): 16 µg/mL; Corrected MIC (S. aureus [21]; S. aureus SA025): 1 µg/mL; Corrected MIC (S. aureus [21]; S. aureus SA093): 1 µg/mL; Corrected MIC (E. faecalis [22]; E. faecalis EFS001): 8 µg/mL
